Measurements published in US6545002B1 (University of Virginia Patent Foundation, priority 1999, dated 2003).
Where two headings read alike, the source gives them in different places.

Tests used:
[1] = target: T1, rat A1 receptors (rA1) (Rattus norvegicus, UniProt P25099); assay: Displacement of [3H]R-PIA binding in rat brain (cerebral cortical) membranes
T1 construct: to A1 receptors from rat cerebral cortical membranes; from tissue; host or cells: rat cerebral cortical (brain) membranes
T1 sequence (P25099 1-326): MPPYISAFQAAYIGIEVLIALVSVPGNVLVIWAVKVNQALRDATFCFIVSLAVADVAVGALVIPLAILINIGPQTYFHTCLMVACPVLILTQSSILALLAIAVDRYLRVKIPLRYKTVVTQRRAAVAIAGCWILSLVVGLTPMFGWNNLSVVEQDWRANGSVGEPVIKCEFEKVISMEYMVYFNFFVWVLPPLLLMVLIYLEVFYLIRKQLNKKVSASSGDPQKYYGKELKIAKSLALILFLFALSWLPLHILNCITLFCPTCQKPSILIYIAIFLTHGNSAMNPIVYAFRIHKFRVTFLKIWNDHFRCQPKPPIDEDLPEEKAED
Procedure: (§1) Bruns, R. F. et al., Naunyn-Schmiedeberg's Arch. […] Binding of [^3H]R-N^6-phenylisopropyladenosine. Schwabe, U. et al., Naunyn-Schmiedeberg's Arch. […] (Dupont NEN, Boston, Mass.) to A2A receptors from rat striatal membranes was performed as described. […] All non-radioactive compounds were initially dissolved in DMSO, and diluted with buffer to the final concentration, where the amount of DMSO never exceeded 2%. Incubations were terminated by rapid filtration over Whatman GF/B filters, using a Brandell cell harvester (Brandell, Gaithersburg, Md.). The tubes were rinsed three times with 3 mL buffer each.
(§2) At least six different concentrations of competitor, spanning 3 orders of magnitude adjusted appropriately for the IC50 of each compound, were used. IC50 values, calculated with the nonlinear regression method implemented in (Graph-Pad Prism, San Diego, Calif.), were converted to apparent Ki values as described. Linden, J., J. Cycl. Nucl.

[2] = target: T2, rat A2A receptors (rA2A) (Rattus norvegicus, UniProt P30543); assay: Displacement of [3H]CGS 21680 binding in rat striatal membranes
T2 construct: to A2A receptors from rat striatal membranes was performed as described; from tissue; host or cells: rat striatal membranes
T2 sequence (P30543 whole entry): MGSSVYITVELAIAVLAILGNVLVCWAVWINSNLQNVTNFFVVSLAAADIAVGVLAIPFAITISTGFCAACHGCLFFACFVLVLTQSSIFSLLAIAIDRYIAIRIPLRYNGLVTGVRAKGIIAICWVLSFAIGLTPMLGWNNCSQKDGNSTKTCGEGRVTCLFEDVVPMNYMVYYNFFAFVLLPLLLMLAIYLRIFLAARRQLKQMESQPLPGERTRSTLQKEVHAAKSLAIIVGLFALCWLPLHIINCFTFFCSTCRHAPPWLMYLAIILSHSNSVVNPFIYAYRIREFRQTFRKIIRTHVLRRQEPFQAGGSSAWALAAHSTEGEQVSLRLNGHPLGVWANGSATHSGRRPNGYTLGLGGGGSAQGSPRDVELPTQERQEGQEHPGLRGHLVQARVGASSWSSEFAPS
Procedure: as §1, §2

[3] = target: T3, human A3 receptors (hA3) (Homo sapiens, UniProt P0DMS8); assay: Displacement of [125I]AB-MECA binding at human A3 receptors expressed in HEK-293 cells (Table 4)
T3 construct: expressed in transfected cells; host or cells: HEK-293
T3 sequence (P0DMS8 1-318): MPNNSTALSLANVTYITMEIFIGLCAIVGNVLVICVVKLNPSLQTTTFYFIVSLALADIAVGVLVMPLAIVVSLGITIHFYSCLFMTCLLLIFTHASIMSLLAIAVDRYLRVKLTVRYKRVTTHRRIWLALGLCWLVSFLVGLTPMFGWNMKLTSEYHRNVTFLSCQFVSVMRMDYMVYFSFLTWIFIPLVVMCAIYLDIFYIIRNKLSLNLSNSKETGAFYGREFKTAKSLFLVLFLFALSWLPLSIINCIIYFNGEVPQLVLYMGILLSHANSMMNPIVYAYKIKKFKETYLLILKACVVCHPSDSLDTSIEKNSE

[4] = target: T3, human A3 receptors (hA3); assay: Displacement of [125I]ABA binding at human A3 receptors expressed in HEK-293 cells
[5] = target: T4, human A2B receptors (hA2B) (Homo sapiens, UniProt P29275); assay: Radioligand binding ([125I]ABOPX / [3H]ZM241385) at human A2B receptors expressed in HEK-293 cells
T4 construct: expressed in transfected cells; host or cells: HEK-293 (HEK-A2B, G418-selected)
T4 sequence (P29275 1-332): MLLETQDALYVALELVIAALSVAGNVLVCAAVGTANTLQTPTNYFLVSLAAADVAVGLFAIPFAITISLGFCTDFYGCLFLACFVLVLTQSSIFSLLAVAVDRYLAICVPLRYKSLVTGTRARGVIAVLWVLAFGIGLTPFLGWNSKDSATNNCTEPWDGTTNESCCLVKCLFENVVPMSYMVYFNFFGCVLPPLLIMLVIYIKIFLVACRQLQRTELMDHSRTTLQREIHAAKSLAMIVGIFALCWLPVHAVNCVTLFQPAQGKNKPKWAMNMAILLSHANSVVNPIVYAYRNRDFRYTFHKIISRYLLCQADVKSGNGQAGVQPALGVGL

[6] = target: T5, recombinant human A1 receptors (hA1) (Homo sapiens, UniProt P30542); assay: Radioligand binding ([3H]CPX) at recombinant human A1 receptors in HEK-293 cells
T5 sequence (P30542 1-326): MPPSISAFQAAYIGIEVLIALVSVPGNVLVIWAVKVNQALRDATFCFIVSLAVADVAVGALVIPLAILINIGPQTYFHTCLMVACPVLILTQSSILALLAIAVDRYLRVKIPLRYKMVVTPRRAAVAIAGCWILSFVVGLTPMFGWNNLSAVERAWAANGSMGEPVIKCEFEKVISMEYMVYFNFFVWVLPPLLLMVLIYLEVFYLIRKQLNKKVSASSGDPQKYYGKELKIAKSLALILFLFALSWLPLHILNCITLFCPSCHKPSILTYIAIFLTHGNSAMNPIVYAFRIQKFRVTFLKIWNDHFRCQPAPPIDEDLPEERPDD

[7] = target: recombinant human A2A receptors (hA2A) (Homo sapiens, UniProt P29274); assay: Radioligand binding (125I-ZM241385) at recombinant human A2A receptors in HEK-293 cells
recombinant human A2A receptors (hA2A), sequence (P29274 whole entry): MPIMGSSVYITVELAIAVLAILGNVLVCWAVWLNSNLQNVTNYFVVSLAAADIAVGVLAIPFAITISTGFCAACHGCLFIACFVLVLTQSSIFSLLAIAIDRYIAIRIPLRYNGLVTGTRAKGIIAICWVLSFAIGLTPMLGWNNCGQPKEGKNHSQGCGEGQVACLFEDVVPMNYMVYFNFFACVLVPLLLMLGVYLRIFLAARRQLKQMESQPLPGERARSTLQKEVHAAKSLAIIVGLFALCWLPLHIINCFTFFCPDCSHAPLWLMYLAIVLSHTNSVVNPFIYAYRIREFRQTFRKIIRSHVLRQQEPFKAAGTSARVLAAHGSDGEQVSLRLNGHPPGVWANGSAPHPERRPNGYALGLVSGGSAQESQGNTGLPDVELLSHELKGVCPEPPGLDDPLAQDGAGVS

[8] = Table 2, read-out: hA3 Ki or IC50
[9] = Table 2, read-out: rA1 Ki or IC50
[10] = Table 2, read-out: hA2B Ki or IC50
[11] = read-out: hA1 Ki or IC50, Table 2
[12] = read-out: hA2A Ki or IC50, Table 2
[13] = Table 2, read-out: rA2A Ki or IC50
[14] = read-out: Ki value at human A2B receptors

Compound	Ki [4, 8] [nM]	melting point [°C]	Ki [1, 9] [nM]	Ki [5, 10] [nM]	Ki [6, 11] [nM]	Ki [7, 12] [nM]	Ki [2, 13] [nM]	selectivity for human A2B versus human A1 receptors [5] [fold]	Ki [5, 14] [nM]	also measured
CCCn1c(=O)c2[nH]c(-c3ccc(OCC(=O)NN)cc3)nc2n(CCC)c1=O [Compound 4f]	–	–	–	–	–	–	–	–	–	Ki ([1]; Table 4, read-out: rA1 Ki): 16 ± 0.5 nM; Ki ([2]; Table 4, read-out: rA2A Ki): 63.8 ± 21.3 nM; Ki [3]: 498 ± 139 nM
CCCn1c(=O)c2[nH]c(-c3ccc(OCC(=O)Nc4ccc(C(=O)OC)cc4)cc3)nc2n(CCC)c1=O [Compound 21, 8-[4-[((4-Methoxycarbonyl)phenylcarbamoylmethyl)oxy]phenyl]-1,3-di-(n-propyl)xanthine]	363 ± 148	> 310	38.4 ± 3.9	3.93 ± 1.35	225 ± 9	3100	541 ± 128	–	–	–
CCCn1c(=O)c2[nH]c(-c3ccc(OCC(=O)Nc4ccc([N+](=O)[O-])cc4)cc3)nc2n(CCC)c1=O [Compound 28, 8-[4-[((4-Nitro)phenylcarbamoylmethyl)oxy]phenyl]-1,3-di-(n-propyl)xanthine]	138 ± 17.1	307	13.1 ± 3.9	–	57 ± 3.1	70 ± 10.7	1180	35	1.52	–
CCCn1c(=O)c2[nH]c(-c3ccc(OCC(=O)Nc4ccc(C(F)(F)F)cc4)cc3)nc2n(CCC)c1=O [Compound 29, 8-[4-[((4-Trifluoromethyl)phenylcarbamoylmethyl)oxy]phenyl]-1,3-di-(n-propyl)xanthine]	213 ± 94	> 310	44.6 ± 6.5	–	61.2 ± 8.2	238 ± 28	917 ± 258	–	2.14	–
CCCn1c(=O)c2[nH]c(-c3ccc(OCC(=O)Nc4ccc(F)cc4)cc3)nc2n(CCC)c1=O [Compound 30, 8-[4-[((4-Fluoro)phenylcarbamoylmethyl)oxy]phenyl]-1,3-di-(n-propyl)xanthine]	391 ± 147	298	2.72 ± 0.51	2.22 ± 0.19	17.9 ± 4.5	16.6 ± 3.6	988 ± 518	–	–	selectivity for human A2B versus rat A1 receptors [5]: 1 fold
CCCn1c(=O)c2[nH]c(-c3ccc(OCC(=O)Nc4ccc(Cl)cc4)cc3)nc2n(CCC)c1=O [Compound 31, 8-[4-[((4-Chloro)phenylcarbamoylmethyl)oxy]phenyl]-1,3-di-(n-propyl)xanthine]	1870	309	6.35 ± 1.47	2.47 ± 0.71	49.7 ± 14.2	187 ± 38	995 ± 550	–	–	–
CCCn1c(=O)c2[nH]c(-c3ccc(OCC(=O)Nc4ccc(Br)cc4)cc3)nc2n(CCC)c1=O [Compound 32, 8-[4-[((4-Bromo)phenylcarbamoylmethyl)oxy]phenyl]-1,3-di-(n-propyl)xanthine]	2300	> 310	7.46 ± 2.66	2.35 ± 0.01	73.5 ± 23.3	1640	221 ± 36	–	–	–
CCCn1c(=O)c2[nH]c(-c3ccc(OCC(=O)Nc4ccc(I)cc4)cc3)nc2n(CCC)c1=O [Compound 33, 8-[4-[((4-Iodo)phenylcarbamoylmethyl)oxy]phenyl]-1,3-di-(n-propyl)xanthine]	1270	> 310	15.7 ± 4.2	–	293 ± 67	5140	152 ± 47	140	2.13	selectivity for human A2B versus human A2A receptors [5]: 2400 fold; selectivity for human A2B versus human A3 receptors [5]: 600 fold
CCCn1c(=O)c2[nH]c(-c3ccc(/C=C/C(=O)NN4C(=O)C(C)=C(C)C4=O)cc3)nc2n(CCC)c1=O [Compound 34, 8-(4-(2-Carboxy-trans-vinyl)phenyl)-1,3-di-(n-propyl)xanthine N′,N′-[(1,2-Dimethyl)maleyl]hydrizide]	–	302 to 303	–	–	–	–	–	–	–	Ki ([4]; Table 3, read-out: hA3 Ki or IC50): 31 ± 3.1 nM; Ki ([1]; Table 3, read-out: rA1 Ki or IC50): 3.94 ± 1.2 nM; Ki ([5]; Table 3, read-out: hA2B Ki or IC50): 16.7 ± 3 nM; Ki ([6]; read-out: hA1 Ki, values marked (h), Table 3): 105 ± 5 nM; Ki ([7]; read-out: hA2A Ki, values marked (h), Table 3): 223 ± 55 nM; Ki ([2]; Table 3, read-out: rA2A Ki or IC50): 406 ± 105 nM
CCCn1c(=O)c2[nH]c(-c3ccc(OCC(=O)NN4C(=O)C(C)=C(C)C4=O)cc3)nc2n(CCC)c1=O [Compound 47, 8-[4-[(Carboxymethyl)oxy]phenyl]-1,3-di-(n-propyl)xanthine N,N-[(1,2-Dimethyl)maleyl]hydrazide]	–	> 310	–	–	–	–	–	160	19	Ki ([4]; Table 4, footnote a: [125I]ABA, read-out: hA3 Ki (value marked ^a)): 670 ± 154 nM; Ki ([1]; Table 4, read-out: rA1 Ki): 11.1 ± 2.4 nM; selectivity for human A2B versus human A2A receptors [5]: 100 fold; selectivity for human A2B versus human A3 receptors [5]: 35 fold; hA1/hA2B ([5]; Table 1, Ki ratio): 110; hA2A/hA2B ([5]; Table 1, Ki ratio): 74; hA3/hA2B ([5]; Table 1, Ki ratio): 25; Ki ([5]; Table 1, [125I]ABOPX, HEK-293, read-out: hA2B Ki or IC50): 26.6 ± 4 nM; rA1/hA2B ([5]; Table 4, Ki ratio): 0.57; Ki ([5]; Table 4, footnote a: [125I]-ABOPX, read-out: hA2B Ki (value marked ^a) (converted)): 33.8 nM; Ki ([5]; Table 4, unmarked value, first of two binding assays, read-out: hA2B Ki): 19.4 ± 6.2 nM; Ki ([6]; read-out: hA1 Ki, values marked (h)^a, Table 4, vs [3H]CPX, HEK-293): 3030 nM; Ki ([7]; read-out: hA2A Ki, values marked (h), Table 1, recombinant human A2A, HEK 293): 1970 nM; Ki ([2]; Table 4, read-out: rA2A Ki): 126 ± 41 nM
